Molecular target: P2X7 (Homo sapiens (Human), UniProt Q99572)
Assay: P2X7 antagonism in human peripheral blood mononuclear cells (PBMCs), IL-1β release
Format: cell-based
Conditions: LPS 30 ng/ml + Bz-ATP 0.5 mM; for remaining activity at 10 µM: P2X7, Table 2 (additional runs), 10 μM compound, read-out: PBMC 10 μM (% control); for PBMC 10 μM (% control): Table 1, 10 μM compound
Procedure: P2X7 Antagonism in Human Peripheral Blood Mononuclear Cells (PBMCs) and Human Whole Blood.
Human blood was collected using a blood donor program. PBMCs were isolated from blood using a Ficoll density gradient technique. Briefly, blood was laid on Ficoll solution and centrifuged at RT for 20 minutes at 2000 rpm. The buffy layer (between red blood cells and plasma) was carefully collected by aspiration, washed with PBS and centrifuged again at 1500 rpm for 15 minutes. The resulting cell pellet was washed and plated on 96 well-plates for experiments. For the Human Whole Blood experiments, 150 μl of human blood was platted on 96 well-plates. Lipopolysaccharide (LPS) (30 ng/ml) was added to each well and incubated for 1 hour. Test compounds were then added and incubated for 30 minutes. The P2X7 agonist, 2′(3′)-O-(4-benzoylbenzoyl) adenosine 5′-triphosphate (Bz-ATP) was then added at a final concentration of 0.5 mM (PBMC) or 1 mM (blood). Cells were incubated for an additional 1.5 hours. At that point, supernatant was collected and stored for IL-1β assay using manufacturer's protocol for enzyme-linked immunosorbent assay (ELISA). Data was expressed as percent control, where control is defined as the difference in IL-1β release in LPS+Bz-ATP samples and LPS only samples. Data was plotted as response (% control) versus concentration to generate IC50 values. […] Data are analyzed and graphed on Graphpad Prism 5. For analysis, each concentration point is averaged from triplicate values and the averaged values are plotted on Graphpad Prism.

P2X7, sequence (Q99572 whole entry): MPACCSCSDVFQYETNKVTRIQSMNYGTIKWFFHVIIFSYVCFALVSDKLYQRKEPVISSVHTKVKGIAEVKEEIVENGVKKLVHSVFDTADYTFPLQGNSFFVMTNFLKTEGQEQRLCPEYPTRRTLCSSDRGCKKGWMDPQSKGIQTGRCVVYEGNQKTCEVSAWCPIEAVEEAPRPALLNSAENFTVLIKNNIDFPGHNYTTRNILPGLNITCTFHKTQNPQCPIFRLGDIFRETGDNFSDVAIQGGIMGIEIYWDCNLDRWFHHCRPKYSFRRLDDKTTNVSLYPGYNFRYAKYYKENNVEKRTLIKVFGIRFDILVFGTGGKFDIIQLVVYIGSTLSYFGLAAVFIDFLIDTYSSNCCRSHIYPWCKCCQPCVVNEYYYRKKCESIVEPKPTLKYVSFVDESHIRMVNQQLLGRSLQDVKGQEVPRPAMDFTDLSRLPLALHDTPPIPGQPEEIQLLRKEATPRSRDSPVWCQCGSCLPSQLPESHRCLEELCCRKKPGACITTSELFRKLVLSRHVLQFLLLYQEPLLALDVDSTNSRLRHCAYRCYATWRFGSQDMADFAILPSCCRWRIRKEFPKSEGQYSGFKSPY

SMILES	remaining activity at 10 µM [%]	PBMC 10 μM (% control)
Cc1c(C(=O)N2[C@H]3CC[C@@H]2c2nnc(-c4cscn4)n2C3)cccc1C(F)(F)F [Example 53, (6S,9R)-10-{[2-Methyl-3-(trifluoromethyl)phenyl]carbonyl}-3-(1,3-thiazol-4-yl)-6,7,8,9-tetrahydro-5H-6,9-epimino[1,2,4]triazolo[4,3-a]azepine]	4	4.0
Cc1ncsc1-c1nnc2n1C[C@@H]1CC[C@H]2N1C(=O)c1cccc(C(F)(F)F)c1Cl [Example 59, (6S,9R)-10-{[2-Chloro-3-(trifluoromethyl)phenyl]carbonyl}-3-(4-methyl-1,3-thiazol-5-yl)-6,7,8,9-tetrahydro-5H-6,9-epimino[1,2,4]triazolo[4,3-a]azepine]	0.6	0.6
